Source: patent US10506810B2, “Synergistic herbicidal composition” (QINGDAO KINGAGROOT RESISTANT WEED MANAGEMENT CO., LTD., priority 2015, dated 2019)
Like-named read-outs stand apart in the source and are kept apart here.

Tests used:
Experiment in all cases: pot-culture method, stem and leaf treatment in greenhouse, fresh weight inhibition rate 20 days after treatment (Gowing method)
Assay type in all cases: in vivo
Capsella bursa-pastoris = test system: Capsella bursa-pastoris
Procedure: (§1) Capsella bursa-pastoris, Myosoton aquaticum, Alopecurus japonicus were collected from corn fields in Huangdao Experimental Base of Shandong Province.
(§2) The above weeds were cultivated by a pot culture method. […] Full and uniform weed seeds were selected, soaked in warm water at 25° C. for 6 hours, and germinated in a 28° C. biochemical incubator (darkness). […] A certain amount of water was added to the enamel pan regularly to keep the soil moist.
(§3) The technical materials were all dissolved in acetone, and diluted with an aqueous solution containing 0.1% emulsifier T-80. The dilution is performed as required.
(§4) A ratio of the active ingredient A to the active ingredient B and amounts thereof in each group depends on the characteristics and toxicity of the two agents, as well as the main application purpose of a corresponding formulation. Based on the pre-tests in this study, the dosage of the active ingredient A and the active ingredient B applied alone and in combination were shown in the tables, and a total 15 groups were designed. Water containing the solvent and emulsifier same with the above groups but free of the agents was used as a blank control.
(§5) 3 pots with 20 weed seeds per pot were treated in one treatment with […] per treatment, that is, a total of 60 weeds were treated in one treatment.
(§6) The agents were used for only once in the experiment. In the stage of weeds with 2 leaves and 1 core, the weeds were thinned out to maintain 15 weeds per pot and 45 weeds for each treatment, then continued to be cultured to 3-5-leaves stage of Capsella bursa-pastoris and Myosoton aquaticum, and 3-leaves and 1-core stage of Alopecurus japonicus, and treated.
(§7) The well-cultured weeds were evenly placed on a platform with an area of 0.5 m^2, and a solution of agents was sprayed on the stems and leaves thereof by the 3WP-2000-type walking spray tower at a dosage of 30 kg/ha and at a spray pressure of 0.3 MPa. After all the solution was sprayed, the valve was closed. After 30 seconds, the door of the spray tower was opened, and the nutritional bowl was taken out. Then the valve was opened, and the spray tube was cleaned by spraying 50 ml of water.
(§8) A pot-culture method was employed. For the cultivation of weeds, please refer to the Section 1.2, and “Pesticide guidelines for laboratory bioactivity tests—herbicides”. As to a method for applying agents, please refer to the section 2.3.2, that is, a method for treating stems and leaves was employed.
(§9) A method for investigating absolute number was employed, wherein whole seedlings of survival weeds were cut off with a blade along the soil surface, and the fresh weight of the weeds was weighed with an analytical balance. For dead weeds, the fresh weight thereof was zero.
(§10) The investigation was performed after 20 days of the treatment for only once.
(§11) Wherein, in the formula, X represented the fresh weight inhibition rate of the active ingredient A in a dosage of P, and Y represented the fresh weight inhibition rate of the active ingredient B in a dosage of Q.

Alopecurus japonicus = test system: Alopecurus japonicus
Procedure: as §1, §2, §3, §4, §5, §6, §7, §8, §9, §10, §11

Myosoton aquaticum = test system: Myosoton aquaticum
Procedure: as §1, §2, §3, §4, §5, §6, §7, §8, §9, §10, §11

[1] = Capsella bursa-pastoris, 40 g/hm^2
[2] = Capsella bursa-pastoris, 480 h, read-out: actual fresh weight inhibition rate

COc1nn(C(=O)[N-]S(=O)(=O)c2ccccc2OC(F)(F)F)c(=O)n1C.[Na+] [Flucarbazone-sodium]
actual fresh weight inhibition rate (Capsella bursa-pastoris; dosage 20 g/hm^2): 25.6% | actual fresh weight inhibition rate (Capsella bursa-pastoris; dosage 35 g/hm^2): 42.7% | actual fresh weight inhibition rate (Capsella bursa-pastoris; dosage 50 g/hm^2): 65.1% | actual fresh weight inhibition rate (Alopecurus japonicus; dosage 20 g/hm^2): 69.6% | actual fresh weight inhibition rate (Alopecurus japonicus; dosage 35 g/hm^2): 80.3% | actual fresh weight inhibition rate (Alopecurus japonicus; dosage 50 g/hm^2): 85.6%

Cc1nn(C)cc1C(=O)Oc1c(C(=O)c2ccc(C(F)(F)F)cc2S(C)(=O)=O)c(C)nn1C [active ingredient A]
pest or weed control at 15 g/ha (Capsella bursa-pastoris; 480 h, Capsella bursa-pastoris, 15 g/hm^2, read-out: actual fresh weight inhibition rate): 72.3% | pest or weed control at 30 g/ha (Capsella bursa-pastoris; 480 h, Capsella bursa-pastoris, 30 g/hm^2, read-out: actual fresh weight inhibition rate): 90.5% | pest or weed control at 45 g/ha (Capsella bursa-pastoris; 480 h, Capsella bursa-pastoris, 45 g/hm^2, read-out: actual fresh weight inhibition rate): 100% | pest or weed control at 15 g/ha (Myosoton aquaticum; Myosoton aquaticum, 480 h, Myosoton aquaticum (Table 19), 15 g/hm^2, read-out: actual fresh weight inhibition rate): 13.2% | pest or weed control at 30 g/ha (Myosoton aquaticum; Myosoton aquaticum, 480 h, Myosoton aquaticum (Table 19), 30 g/hm^2, read-out: actual fresh weight inhibition rate): 16.5% | pest or weed control at 45 g/ha (Myosoton aquaticum; Myosoton aquaticum, 480 h, Myosoton aquaticum (Table 19), 45 g/hm^2, read-out: actual fresh weight inhibition rate): 24.6% | pest or weed control at 15 g/ha (Myosoton aquaticum; Myosoton aquaticum, 480 h, Myosoton aquaticum, 15 g/hm^2, read-out: actual fresh weight inhibition rate): 67.4% | pest or weed control at 30 g/ha (Myosoton aquaticum; Myosoton aquaticum, 480 h, Myosoton aquaticum, 30 g/hm^2, read-out: actual fresh weight inhibition rate): 87.6% | pest or weed control at 45 g/ha (Myosoton aquaticum; Myosoton aquaticum, 480 h, Myosoton aquaticum, 45 g/hm^2, read-out: actual fresh weight inhibition rate): 100% | pest or weed control at 15 g/ha (Myosoton aquaticum; Myosoton aquaticum, 480 h, dosage 15 g/hm^2, read-out: actual fresh weight inhibition rate): 67.4% | pest or weed control at 30 g/ha (Myosoton aquaticum; Myosoton aquaticum, 480 h, dosage 30 g/hm^2, read-out: actual fresh weight inhibition rate): 87.6% | pest or weed control at 45 g/ha (Myosoton aquaticum; Myosoton aquaticum, 480 h, dosage 45 g/hm^2, read-out: actual fresh weight inhibition rate): 100% | actual fresh weight inhibition rate (Alopecurus japonicus; Alopecurus japonicus, 15 g/hm^2): 13.2% | actual fresh weight inhibition rate (Alopecurus japonicus; Alopecurus japonicus, 30 g/hm^2): 16.5% | actual fresh weight inhibition rate (Alopecurus japonicus; Alopecurus japonicus, 45 g/hm^2): 24.6% | actual fresh weight inhibition rate (Alopecurus japonicus; dosage 15 g/hm^2): 13.2% | actual fresh weight inhibition rate (Alopecurus japonicus; dosage 30 g/hm^2): 16.5% | actual fresh weight inhibition rate (Alopecurus japonicus; dosage 45 g/hm^2): 24.6%

C[C@@H](Oc1ccc(Oc2ncc(Cl)cc2F)cc1)C(=O)O [clodinafop]
actual fresh weight inhibition rate (Capsella bursa-pastoris; [1]): 0% | actual fresh weight inhibition rate (Capsella bursa-pastoris; Capsella bursa-pastoris, 65 g/hm^2): 0% | actual fresh weight inhibition rate (Capsella bursa-pastoris; Capsella bursa-pastoris, 90 g/hm^2): 0% | actual fresh weight inhibition rate (Alopecurus japonicus; Alopecurus japonicus, 40 g/hm^2): 81.3% | actual fresh weight inhibition rate (Alopecurus japonicus; Alopecurus japonicus, 65 g/hm^2): 87.4% | actual fresh weight inhibition rate (Alopecurus japonicus; Alopecurus japonicus, 90 g/hm^2): 95.6%

COC(=O)c1ccc(CNS(C)(=O)=O)cc1S(=O)(=O)NC(=O)Nc1nc(OC)cc(OC)n1 [mesosulfuron-methyl]
actual fresh weight inhibition rate (Capsella bursa-pastoris; dosage 6 g/hm^2): 24.5% | actual fresh weight inhibition rate (Capsella bursa-pastoris; dosage 9 g/hm^2): 37.6% | actual fresh weight inhibition rate (Capsella bursa-pastoris; dosage 12 g/hm^2): 63.4% | actual fresh weight inhibition rate (Alopecurus japonicus; dosage 6 g/hm^2): 67.9% | actual fresh weight inhibition rate (Alopecurus japonicus; dosage 9 g/hm^2): 73.2% | actual fresh weight inhibition rate (Alopecurus japonicus; dosage 12 g/hm^2): 88.9%

CSc1nnc(C(C)(C)C)c(=O)n1N [metribuzin, reference compound]
actual fresh weight inhibition rate (%) (Capsella bursa-pastoris; dosage 13.5 g/hm^2): 55.6% | actual fresh weight inhibition rate (%) (Capsella bursa-pastoris; dosage 25 g/hm^2): 64.1% | actual fresh weight inhibition rate (%) (Capsella bursa-pastoris; dosage 36.5 g/hm^2): 82.3% | actual fresh weight inhibition rate (%) (Myosoton aquaticum; dosage 13.5 g/hm^2): 42.1% | actual fresh weight inhibition rate (%) (Myosoton aquaticum; dosage 25 g/hm^2): 52.9% | actual fresh weight inhibition rate (%) (Myosoton aquaticum; dosage 36.5 g/hm^2): 58.5%

O=C(Nc1ccc(F)cc1)c1cccc(Oc2cccc(C(F)(F)F)c2)n1 [picolinafen]
actual fresh weight inhibition rate (Capsella bursa-pastoris; [1]): 16.4% | actual fresh weight inhibition rate (Capsella bursa-pastoris; Capsella bursa-pastoris, 80 g/hm^2): 33.2% | actual fresh weight inhibition rate (Capsella bursa-pastoris; Capsella bursa-pastoris, 120 g/hm^2): 55.6% | actual fresh weight inhibition rate (Myosoton aquaticum; Myosoton aquaticum, 40 g/hm^2): 14.5% | actual fresh weight inhibition rate (Myosoton aquaticum; Myosoton aquaticum, 80 g/hm^2): 34.9% | actual fresh weight inhibition rate (Myosoton aquaticum; Myosoton aquaticum, 120 g/hm^2): 50.5%

CCc1cc(C)cc(CC)c1-c1c(OC(=O)C(C)(C)C)n2n(c1=O)CCOCC2 [pinoxaden]
pest or weed control at 60 g/ha (Capsella bursa-pastoris; Capsella bursa-pastoris, 480 h, dosage 60 g/hm^2, read-out: actual fresh weight inhibition rate): 0% | pest or weed control at 80 g/ha (Capsella bursa-pastoris; Capsella bursa-pastoris, 480 h, dosage 80 g/hm^2, read-out: actual fresh weight inhibition rate): 0% | pest or weed control at 120 g/ha (Capsella bursa-pastoris; Capsella bursa-pastoris, 480 h, dosage 120 g/hm^2, read-out: actual fresh weight inhibition rate): 0% | actual fresh weight inhibition rate (Alopecurus japonicus; dosage 60 g/hm^2): 69.2% | actual fresh weight inhibition rate (Alopecurus japonicus; dosage 80 g/hm^2): 78.6% | actual fresh weight inhibition rate (Alopecurus japonicus; dosage 120 g/hm^2): 85.2%

CSc1nc(NC(C)C)nc(NC(C)C)n1 [prometryn]
pest or weed control at 150 g/ha (Capsella bursa-pastoris; 480 h, Capsella bursa-pastoris, 150 g/hm^2, read-out: actual fresh weight inhibition rate): 20.4% | pest or weed control at 450 g/ha (Capsella bursa-pastoris; 480 h, Capsella bursa-pastoris, 450 g/hm^2, read-out: actual fresh weight inhibition rate): 29.6% | pest or weed control at 750 g/ha (Capsella bursa-pastoris; 480 h, Capsella bursa-pastoris, 750 g/hm^2, read-out: actual fresh weight inhibition rate): 45.7% | pest or weed control at 150 g/ha (Myosoton aquaticum; Myosoton aquaticum, 480 h, Myosoton aquaticum, 150 g/hm^2, read-out: actual fresh weight inhibition rate): 22.6% | pest or weed control at 450 g/ha (Myosoton aquaticum; Myosoton aquaticum, 480 h, Myosoton aquaticum, 450 g/hm^2, read-out: actual fresh weight inhibition rate): 33.7% | pest or weed control at 750 g/ha (Myosoton aquaticum; Myosoton aquaticum, 480 h, Myosoton aquaticum, 750 g/hm^2, read-out: actual fresh weight inhibition rate): 45.2%

COc1cc(OC)n2nc(NS(=O)(=O)c3c(C(F)(F)F)ccnc3OC)nc2n1 [pyroxsulam]
actual fresh weight inhibition rate (Capsella bursa-pastoris; dosage 5 g/hm^2): 19.4% | actual fresh weight inhibition rate (Capsella bursa-pastoris; dosage 10 g/hm^2): 31.7% | actual fresh weight inhibition rate (Capsella bursa-pastoris; dosage 15 g/hm^2): 55.6% | actual fresh weight inhibition rate (Alopecurus japonicus; dosage 5 g/hm^2): 63.5% | actual fresh weight inhibition rate (Alopecurus japonicus; dosage 10 g/hm^2): 81.9% | actual fresh weight inhibition rate (Alopecurus japonicus; dosage 15 g/hm^2): 91.5%

CCNc1nc(NC(C)(C)C)nc(SC)n1 [terbutryn]
pest or weed control at 125 g/ha (Capsella bursa-pastoris; 480 h, Capsella bursa-pastoris, 125 g/hm^2, read-out: actual fresh weight inhibition rate): 15.4% | pest or weed control at 275 g/ha (Capsella bursa-pastoris; 480 h, Capsella bursa-pastoris, 275 g/hm^2, read-out: actual fresh weight inhibition rate): 25.3% | pest or weed control at 425 g/ha (Capsella bursa-pastoris; 480 h, Capsella bursa-pastoris, 425 g/hm^2, read-out: actual fresh weight inhibition rate): 40.9% | pest or weed control at 125 g/ha (Myosoton aquaticum; Myosoton aquaticum, 480 h, Myosoton aquaticum, 125 g/hm^2, read-out: actual fresh weight inhibition rate): 13.4% | pest or weed control at 275 g/ha (Myosoton aquaticum; Myosoton aquaticum, 480 h, Myosoton aquaticum, 275 g/hm^2, read-out: actual fresh weight inhibition rate): 29.3% | pest or weed control at 425 g/ha (Myosoton aquaticum; Myosoton aquaticum, 480 h, Myosoton aquaticum, 425 g/hm^2, read-out: actual fresh weight inhibition rate): 33.9%

CCO/N=C(\CC)C1=C(O)CC(c2c(C)cc(C)cc2C)CC1=O (stereo not drawn) [tralkoxydim]
pest or weed control at 240 g/ha (Capsella bursa-pastoris; [2]): 0% | pest or weed control at 360 g/ha (Capsella bursa-pastoris; [2]): 0% | pest or weed control at 480 g/ha (Capsella bursa-pastoris; [2]): 0% | actual fresh weight inhibition rate (Alopecurus japonicus; Alopecurus japonicus, 240 g/hm^2): 74.5% | actual fresh weight inhibition rate (Alopecurus japonicus; Alopecurus japonicus, 360 g/hm^2): 81.2% | actual fresh weight inhibition rate (Alopecurus japonicus; Alopecurus japonicus, 480 g/hm^2): 89.8%

dimethylammonium 4-chloro-o-tolyloxyacetate [MCPA-dimethylammonium, reference compound]
actual fresh weight inhibition rate (%) (Capsella bursa-pastoris; dosage 550 g/hm^2): 29.2% | actual fresh weight inhibition rate (%) (Capsella bursa-pastoris; dosage 950 g/hm^2): 43.6% | actual fresh weight inhibition rate (%) (Capsella bursa-pastoris; dosage 1350 g/hm^2): 59.2% | actual fresh weight inhibition rate (%) (Myosoton aquaticum; dosage 550 g/hm^2): 26.7% | actual fresh weight inhibition rate (%) (Myosoton aquaticum; dosage 950 g/hm^2): 33.1% | actual fresh weight inhibition rate (%) (Myosoton aquaticum; dosage 1350 g/hm^2): 47.2%
